{
  "source": "paper PMC7001544",
  "about": "(JHEP Reports, 2019)",
  "origin": "cited, not measured here",
  "data": [
    {"smiles": "Cc1c(C)c2c(c(C)c1O)CCC(C)(COc1ccc(CC3SC(=O)NC3=O)cc1)O2", "note": "(centres unmarked) [troglitazone]", "values": [
      {"measurement": "effect on NTCP oligomerization", "setting": "NTCP", "value": "prevent NTCP oligomerization"},
      {"measurement": "effect on internalization and infection of HBV", "setting": "HBV", "value": "interfere with internalization and infection of HBV"}
    ]}
  ]
}
